According to article PMC2637266, “Quantification of gamma-secretase modulation differentiates inhibitor compound selectivity between two substrates Notch and amyloid precursor protein” (Molecular Brain, 2008):
pIC50: −log10 of the molar value. “Also recorded” adds a separate entry of the source. Like-named read-outs stand apart in the source and are kept apart here.

Key:
[1] = biological target: T1, γ-secretase cleavage of Notch N100-Flag (Homo sapiens, UniProt P49768); experiment: In vitro γ-secretase activity assay, NICD generated from N100-Flag, Western blot densitometry; type: biochemical; settings: for NICD generation in vitro, dose response: N100-Flag, increasing concentrations
T1 construct: substrate made in E. coli
Method: (§1) To characterize the direct effect of two γ-secretase inhibitors cpd E and DAPT on APP/Notch cleavage, a conventional in vitro γ-secretase assay to quantify their inhibitory potency was used. The incubation of γ-secretase complex with purified substrates at 37°C for 4 hr was followed by Western Blot (WB) to determine the quantity of newly generated NICD. A newly generated band that corresponds to the predicted size of the NICD-Flag was detected (Fig. 1A and 1B).
(§2) Figure 1 Generation of NICD and Aβ from purified APP and Notch substrate C100 and N100 in an in vitro γ-secretase activity assay. The E. coli generated APP- and Notch-based, 100-residue γ-secretase substrates C100-Flag and N100-Flag were mixed with the membrane vesicles solubilized in CHAPSO after DMSO or compounds were added. The mixture was incubated at 37°C for 4 hours. A. A dose-dependent inhibition of NICD generation by DAPT. Generation of NICD was detected by Western blot (WB) with antibody 1744 specifically recognizing N-terminus of NICD. B. Generation of NICD was inhibited in the presence of 100 nM of cpd E. C. Levels of NICD determined by WB were quantified by densitometry (dotted line). Levels of Aβ generated from the γ-secretase cleavage of C100 in the presence of DAPT were determined by ELISA (solid line). […] D. NICD (dotted line) and Aβ (solid line) generation in the presence of cpd E were compared.
(§3) The E. coli generated APP- and Notch-based, 100-residue γ-secretase substrates C100-Flag and N100-Flag were purified as previously described. C100-Flag substrate contains an initiating methionine, the 99 C-terminal residues of APP that start at the […], and a Flag tag. N100-Flag substrate contains a similar initiating methionine, 99 amino acids that start at the TACE cleavage site, and a Flag tag. The membrane vesicles were solubilized in 1% CHAPSO-HEPES and diluted in a final concentration of 0.2% CHAPSO-HEPES. Phosphatidylethanolamine (PE) and phosphatidylcholine (PC) were added to the final concentration of 0.02% PE and 0.08% PC. After adding DMSO or test compounds to the solubilized γ-secretase complex, substrate C100-Flag or N100-Flag was added to the mixture, then followed by incubation at 37°C for 4 hours. Two compounds have been used in this study, compound E (cpd E), {(S,S)-2-[2-(3,5-Difluorophenyl)-acetylamino]-N-(1-methyl-2-oxo-5-phenyl-2,3-dihydro-1H-benzo [e] [1,4] diazepin-3-yl)-propionamide} [57] and DAPT {N-[N-(3,5-Difluorophenacetyl-L-alanyl)]-S-phenylglycine t-Butyl Ester} [79]. Cpd E was provided by Dr. Michael Wolfe.

[2] = biological target: T2, γ-secretase cleavage of APP C100-Flag (Homo sapiens, UniProt P49768); experiment: In vitro γ-secretase activity assay, Aβ generated from C100-Flag, ELISA; type: biochemical; settings: for γ-secretase cleavage of APP in vitro at low concentrations: 0.1 nM to 10 nM; for pIC50: C100-Flag, 37°C, 4 hr; for Aβ production in vitro, dose response: C100Flag, increasing concentrations
T2 construct: substrate made in E. coli
Method: as §1, §2
The same preparation of γ-secretase complex was mixed with C100Flag followed by ELISA to quantify the levels of newly generated Aβ.
as §3
Sandwich ELISAs for Aβ were performed as described. The capture antibodies, 2G3 (to Aβ residues 33–40) and 4G8 (to Aβ residues 17–24), were used for Aβ40 and Aβ total species, respectively. The detecting antibodies were biotinylated 82E1 (to Aβ residues 1–16) for Aβ1–40/total or biotinylated 266 for Aβx-40 species. The use of mid-region and C-terminal capturing antibodies and N-terminal detecting antibody for chimeric "Notch-Aβ-like" peptide (Nβ*) has been documented. The combination of several capture/detecting antibodies are use to measure Aβ and Nβ* derived from different precursors. The capture antibody 2G3 and detecting antibody 82E1 were used for measuring Nβ* from APP-α-Notch expressing cells. Since the APP-α-NOTCH is the fusion protein with its juxtamembrane portion of the APP ectodomain (the α-secretase cleavage region) replaced by the corresponding sequence in Notch, the epitopes in APP sequence could still be recognized by 2G3 (C-terminus) and 82E1 (N-terminus). The capture antibody 4G8 and detecting antibody 82E1 were used for measuring Nβ* from APP-m-Notch expressing cells. […]

SMILES	NICD generation in vitro ([1]; 100 nM (0.1 μM), compared to DMSO controls)	NICD generation in vitro, dose response [1]	γ-secretase cleavage of APP in vitro at low concentrations [2]	Aβ generation from APP C100 in vitro ([2]; 100 nM (0.1 μM))	pIC50 ([2]; read-out: IC50 for Aβ generation (levels of Aβ reduced to 50%) in vitro)	Aβ production in vitro, dose response [2]	γ-secretase cleavage of Notch in vitro at low concentrations ([1]; 0.1 nM to 10 nM)	Notch cleavage reduced to, in vitro γ-secretase activity assay ([1]; 1 μM or higher)	NICD generation blocked in vitro ([1]; 10 and 100 μM)	Aβ production in vitro ([2]; 10 and 100 μM)	pIC50 ([2]; read-out: concentration inhibiting levels of Aβ to 50% in vitro)
C[C@H](NC(=O)Cc1cc(F)cc(F)c1)C(=O)N[C@H]1N=C(c2ccccc2)c2ccccc2N(C)C1=O [cpd E, (S,S)-2-[2-(3,5-Difluorophenyl)-acetylamino]-N-(1-methyl-2-oxo-5-phenyl-2,3-dihydro-1H-benzo [e] [1,4]diazepin-3-yl)-propionamide]	inhibited; also recorded: only minor reduction of NICD levels; also recorded: only had minor effect on Notch cleavage and NICD generation	clear reduction of NICD generation	selectively inhibited the γ-secretase cleavage of APP	could almost deplete any Aβ generation; also recorded: completely blocked Aβ generation	9.00	dose-dependent reduction of Aβ production	–	–	–	–	–
C[C@H](NC(=O)Cc1cc(F)cc(F)c1)C(=O)N[C@H](C(=O)OC(C)(C)C)c1ccccc1 [DAPT, N-[N-(3,5-Difluorophenacetyl-L-alanyl)]-S-phenylglycine t-Butyl Ester]	–	clear reduction of NICD generation	did not inhibit	–	–	dose-dependent reduction of Aβ production	did not inhibit	about 50%	~ 60%	complete depletion of Aβ production	6.00
